Experimental data from US8193157B2, “Antiviral therapies” (priority 2005, dated 2012).
In brackets after ≈: the same amount, converted by molar mass. Where two headings read alike, the source gives them in different places. Marks after values point to notes of the source that are not given here.

B1: UDA: GlcNAc-specific plant lectin from Urtica dioica (stinging nettle) (protein, UniProt P11218 24-372, looked up)
Lectin/endochitinase 1: QRCGSQGGGGTCPALWCCSIWGWCGDSEPYCGRTCENKCWSGERSDHRCGAAVGNPPCGQDRCCSVHGWCGGGNDYCSGSKCQYRCSSSVRGPRVALSGNSTANSIGNVVVTEPLFDQMFSHRKDCPSQGFYSYHSFLVAAESFPAFGTIGDVATRKREVAAFLAHISQATSGERSDVENPHAWGLCHINTTTVTENDFCTSSDWPCAAGKKYSPRGPIQLTHNFNYGLAGQAIGEDLIQNPDLVEKDPIISFKTALWFWMSQHDNKPSCHDIVLNANSAANRIPNKGVIGNIISRAFGHDDFAVRSSSIGFYKRYCDMLGVSYGHDLKYWFDNTPSSEFQRIQMRVAA

Key:
Influenza A H3N2 = type: cell-based
Influenza B = type: cell-based; conditions: MDCK cell cultures
VSVpp = type: cell-based, VSV; conditions: read-out: EC50 VSVpp (C8166)
Influenza A H1N1 = type: cell-based
HCVpp (2b) = assay: HCV pseudoparticle HCVpp (2b) entry into Huh7 cells, luciferase activity; type: cell-based; conditions: mean ±SD
Source text: (§1) Production of pseudoparticles (HCVpp) and cell culture infection. To produce HCVpp, 293T cells (1.2×10^6) were lipofected at a 1:2 ratio of a NLluc^+env^− reporter vector and a vector expressing the HCV envelope glycoproteins as previously described (Bertaux and Dragic, 2006). HCV envelope glycoprotein-encoding sequences corresponding to subtypes 1b and 2b were PCR-amplified from patient sera starting from the last 60 amino acids in the Core to the end of glycoprotein E2. Supernatants were collected 48 hours post lipofection, filtered (0.45μ) and stored at −80° C. until further use. HCVpp were tested by infection of Huh7 cells (5×10^4) and measuring luciferase activity (relative light units, RLU) 48 hours post infection using the Luciferase assay system according to the manufacturer's instructions.
(§2) To measure inhibition of HCVpp (1a,1b,2b) entry into Huh7 cells by CBA and polyanions, an essentially similar procedure has been used as described above for infectious HCVcc (2a).
(§3) In order to reveal whether CBA also act at the level of HCV entry, we evaluated their ability to inhibit entry of pseudoparticles comprising the HCV envelope glycoproteins E1 and E2 into Huh-7 cells.

HCVpp (1a) = assay: HCV pseudoparticle HCVpp (1a) entry into Huh7 cells, luciferase activity; type: cell-based; conditions: for EC50: Huh7 cells, luciferase activity, mean ±SD
Source text: as §1, §2, §3

[1] = system: HIV-1(IIIB) capture by Raji/DC-SIGN cells; assay: Inhibition of HIV-1 capture by Raji/DC-SIGN cells (p24 Ag); type: cell-based; conditions: HIV-1 exposed 30 min to compound before addition to cells
Experimental: Inhibition of HIV-1 capture by Raji/DC-SIGN cells. HIV-1 particles (2.2 μg p24/ml) were exposed to serial dilutions of the test compounds (400 μl) for 30 min. Then, the drug-exposed virus suspensions (500 μl) were mixed with Raji/DC-SIGN cell suspensions (500 μl; 10^6 cells) for 60 min at 37° C. after which the cells were thoroughly washed twice with 40 ml culture medium as described above. […] The Raji/DC-SIGN cell cultures were then analysed for HIV-1 p24 Ag content.
Raji B-lymphocyte cells were modified to express DC-SIGN at their cell surface (Geijtenbeek et al., 2000; Wu et al., 2004). When Raji/DC-SIGN cells were exposed to cell-free HIV-1(IIIB) particles, they were able to efficiently capture the virus particles as evidenced by retention of p24 antigen of HIV-1 on the Raji/DC-SIGN cells (˜1200 pg p24). […] The CBA could prevent >90% of HIV-1 capture at concentrations >2 μM for GNA, HHA and CA; >10 μM for UDA and >60 μM for PRM-A.

HIV-2 (strain ROD) = assay: Anti-HIV assay, inhibition of HIV-2(ROD)-induced cytopathicity in CEM cells; type: cell-based; conditions: virus-induced cytopathicity, mean ±SD
HIV-1 (strain IIIB) = type: cell-based; conditions: for EC50: CEM cells
HCVcc (subtype 2a) = assay: Infectious HCVcc (subtype 2a) infection of Huh7 cells, luciferase activity; type: cell-based, HCV
Experimental: Huh7 cells (2×10^4) were plated and 24 hours later infected with supernatants containing infectious HCVcc pre-mixed with serial dilutions of lectins or polyanions. Mannan (2.5 mg/ml; Sigma) was added to some of the mixtures prior to Huh7 infection. After 24 hours post infection, the mixture of virus and test compounds was replaced by fresh medium, cells were brought at 37° C. and luciferase activity was measured in the cell lysates 24 hours later.
The inhibitory activities of carbohydrate binding small molecules and agents against infectious HIV-1 (strain IIIB), HIV-2 (strain ROD) and HCVcc (subtype 2a) were evaluated in human T lymphocyte cells (CEM) and human hepatocellular carcinoma cells (Huh-7), respectively (Table 1). […] The effect of mannan on the antiviral activity of the CBA was investigated.

HCVpp (1b) = assay: HCV pseudoparticle HCVpp (1b) entry into Huh7 cells, luciferase activity; type: cell-based; conditions: mean ±SD
Source text: as §1, §2, §3

HUT-78/HIV + Sup T-1 = assay: Giant cell formation in a co-cultivation assay HUT-78/HIV + Sup T-1; type: cell-based
[2] = system: AB-resistant HIV-1 (N44.3), glycan deletions N461P and N635K; assay: Anti-HIV activity against AB-resistant HIV-1 strain in CEM cells; type: cell-based; conditions: AB-resistant virus strain (N461P, N635K)
HIV-1 (NL4.3) = assay: Anti-HIV activity of Alcian Blue against HIV-1 (NL4.3) in CEM cells
Experimental: Compounds were tested against HIV-1 strains (HE, NL43, MN, IIIB), HIV-2 strains (ROD, EHO, RF), and SIV (MAC251) for inhibition of virus-induced cytopathicity in MT-4 cells (or CEM or C8166 or Molt4/C8 cells), using the colorimetric test described by Pauwels et al. in J. Virol. […] For example microtiter 96-well plates containing ˜3×10^5 CEM cells/ml, infected with 100 CClD50 of HIV per ml and containing appropriate dilutions of the test compounds were used.
A rapid and automated assay procedure was used for the in vitro evaluation of anti-HIV agents. An HTLV-1 transformed T4-cell line MT-4, which was previously shown to be highly susceptible to and permissive for HIV infection, can serve as the target cell line. Inhibition of the HIV-induced cytopathogenic effect was used as the end point. The viability of both HIV- and mock-infected cells was also assessed spectrophotometrically via in situ reduction of 3(4,5-dimethylthiazol-2-yl)-2,5-diphenyltetrazolium bromide (MTT). Methods comprise for example the microscopic examination of CEM, C8166 or Molt4/C8 giant (syncytium) cell formation, after 4 to 5 days of incubation at 37° C. in a CO2-controlled humidified atmosphere. […] The percent protection achieved by the compound in HIV-infected cells is calculated by the following formula:

[3] = in the presence of mannan 2.5 mg/ml, read-out: HIV-1 EC50 +Mannan (2.5 mg/ml)
[4] = virus-induced cytopathicity, mean ±SD, read-out: EC50 HIV-1(IIIB) (CEM)
[5] = without mannan (Table 3), read-out: HIV-1 EC50 As such
[6] = in the presence of mannan 2.5 mg/ml, read-out: HCV(2a) EC50 +Mannan (2.5 mg/ml)
[7] = luciferase activity, mean ±SD, read-out: EC50 HCV (2a) (Huh7)
[8] = without mannan (Table 3), read-out: HCV(2a) EC50 As such

Molecule | EC50 Influenza A H3N2 (Influenza A H3N2) [µg/mL] | EC50 Influenza B (Influenza B) [µg/mL] | EC50 (VSVpp) [nM] | EC50 Influenza A H1N1 (Influenza A H1N1) [µg/mL] | EC50 (HCVpp (2b)) [nM] | EC50 (HCVpp (1a)) [nM] | concentration preventing >90% of HIV-1 capture by Raji/DC-SIGN cells [1] [µM] | EC50 (HIV-2 (strain ROD)) [nM] | EC50 (HIV-1 (strain IIIB); [3]) [nM] | EC50 (HIV-1 (strain IIIB); [4]) [nM] | EC50 (HIV-1 (strain IIIB); [5]) [nM] | EC50 (HCVcc (subtype 2a); [6]) [nM] | EC50 (HCVcc (subtype 2a); [7]) [nM] | EC50 (HCVcc (subtype 2a); [8]) [nM] | EC50 (HCVpp (1b)) [nM] | EC50 HCVpp (1a) (HCVpp (1a); Alcian Blue table) | EC50 HUT-78/HIV + Sup T-1 (HUT-78/HIV + Sup T-1) | EC50 HIV-1R (N44.3) (CEM) [2] [µg/mL] | EC50 HIV-1 (NL4.3) (CEM) (HIV-1 (NL4.3)) [µg/mL] | decrease of antiviral activity against HIV-1 in the presence of mannan (HIV-1 (strain IIIB); mannan) [fold]
CN[C@@H]1[C@H](O[C@@H]2OC[C@@H](O)[C@H](O)[C@H]2O)[C@@H](O)[C@H](O[C@H]2c3cc(C)c(C(=O)N[C@H](C)C(=O)O)c(O)c3-c3c(cc4c(c3O)C(=O)c3cc(OC)cc(O)c3C4=O)[C@@H]2O)O[C@@H]1C [PRM-A, pradimicin A, reference compound] | 1.6 (≈ 1.9 µM) | 2.4 (≈ 2.85 µM) | > 60000 | 1.9 (≈ 2.26 µM) | 924 ± 156 | 1170 ± 310 | > 60 | 1800 | 40000 ± 13000 | 3360 ± 1200 | 5300 ± 780 | > 30000 | 3610 ± 780 | 3610 ± 780 | 1670 ± 60 |  |  |  |  | 
Alcian Blue | >20 | >20 |  | >20 |  |  |  |  |  |  |  |  |  |  |  | 30^d μg/ml | 4.5 ± 1.5^c μg/ml | >50 | 5 ± 1 | 
B1 | 0.99 |  | > 11000 | 4.1 | 50 ± 54 | 32 ± 15 | > 10 | 391 ± 106 | 459 | 140 ± 40 | 149 ± 40 | 560 ± 108 | 176 ± 29 | 176 ± 29 | 19 ± 22 |  |  |  |  | 3
